Experimental findings from patent US7928140B2, “Benzothiazole PI3 kinase modulators for cancer treatment” (Amgen Inc., priority 2007, dated 2011) are described below.

The target in one assay is T1, PI3K β (Homo sapiens, UniProt P42338).
T1 construct: Full length p110 subunits of PI3K α, β and δ, N-terminally labeled with polyHis tag; polyHis (N); made in house; host or cells: Sf9 insect cells (baculovirus)
Briefly: In vitro PI3 kinase enzyme assay (beta), ATP loss, bioluminescence.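 Further: purified p110β/p85 heterodimer with PtdIns(4,5)P2 as acceptor, incubated at room temperature, leftover ATP read by luminescence, inhibition scaled to compound-free wells with and without enzyme.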 As to conditions: read-out: PI3Kβ ATP loss IC50. The class given is biochemical.

The next assay concerns the target T2, PI3K α (Homo sapiens, UniProt P42336).
T2 construct: Full length p110 subunits of PI3K α, β and δ, N-terminally labeled with polyHis tag; polyHis (N); made in house; host or cells: Sf9 insect cells (baculovirus)
Briefly: In vitro PI3 kinase enzyme assay (alpha), ATP loss, bioluminescence.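 Further: purified p110α/p85 heterodimer acting on PtdIns(4,5)P2 at room temperature, remaining ATP read by luminescence, inhibition scaled between compound-free wells with and without enzyme.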 In kind it is biochemical. The conditions noted are these: read-out: PI3Kα ATP loss IC50.

Molecules are shown by their SMILES. pIC50: −log10 of the molar value.

T1 sequence (P42338 whole entry): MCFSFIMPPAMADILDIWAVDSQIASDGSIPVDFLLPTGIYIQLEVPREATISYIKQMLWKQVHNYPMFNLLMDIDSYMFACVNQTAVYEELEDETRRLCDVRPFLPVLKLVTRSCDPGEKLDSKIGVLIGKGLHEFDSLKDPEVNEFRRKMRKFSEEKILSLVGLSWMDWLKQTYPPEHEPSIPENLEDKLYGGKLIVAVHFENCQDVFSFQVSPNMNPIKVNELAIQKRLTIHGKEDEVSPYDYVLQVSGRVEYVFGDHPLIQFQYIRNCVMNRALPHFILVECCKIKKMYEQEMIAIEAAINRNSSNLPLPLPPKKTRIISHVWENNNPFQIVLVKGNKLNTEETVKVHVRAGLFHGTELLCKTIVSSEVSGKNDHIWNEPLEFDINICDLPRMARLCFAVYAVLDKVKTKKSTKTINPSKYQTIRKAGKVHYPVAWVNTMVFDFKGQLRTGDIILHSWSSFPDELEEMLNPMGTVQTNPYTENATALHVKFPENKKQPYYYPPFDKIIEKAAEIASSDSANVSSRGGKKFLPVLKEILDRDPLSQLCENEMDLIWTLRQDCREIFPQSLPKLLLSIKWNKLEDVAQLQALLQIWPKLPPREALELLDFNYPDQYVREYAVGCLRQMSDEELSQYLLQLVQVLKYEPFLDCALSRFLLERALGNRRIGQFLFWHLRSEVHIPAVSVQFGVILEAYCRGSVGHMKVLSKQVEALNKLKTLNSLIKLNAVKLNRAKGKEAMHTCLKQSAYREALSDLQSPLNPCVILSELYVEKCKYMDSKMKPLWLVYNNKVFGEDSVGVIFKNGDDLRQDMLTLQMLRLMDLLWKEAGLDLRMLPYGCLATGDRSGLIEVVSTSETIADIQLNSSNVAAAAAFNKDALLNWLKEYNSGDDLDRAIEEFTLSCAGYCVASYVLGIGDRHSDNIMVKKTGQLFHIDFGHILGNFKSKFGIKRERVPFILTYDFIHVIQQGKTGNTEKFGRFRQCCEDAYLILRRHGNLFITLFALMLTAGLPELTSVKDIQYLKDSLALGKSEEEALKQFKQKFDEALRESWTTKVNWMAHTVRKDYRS
T1 sequence (P27986 whole entry partner): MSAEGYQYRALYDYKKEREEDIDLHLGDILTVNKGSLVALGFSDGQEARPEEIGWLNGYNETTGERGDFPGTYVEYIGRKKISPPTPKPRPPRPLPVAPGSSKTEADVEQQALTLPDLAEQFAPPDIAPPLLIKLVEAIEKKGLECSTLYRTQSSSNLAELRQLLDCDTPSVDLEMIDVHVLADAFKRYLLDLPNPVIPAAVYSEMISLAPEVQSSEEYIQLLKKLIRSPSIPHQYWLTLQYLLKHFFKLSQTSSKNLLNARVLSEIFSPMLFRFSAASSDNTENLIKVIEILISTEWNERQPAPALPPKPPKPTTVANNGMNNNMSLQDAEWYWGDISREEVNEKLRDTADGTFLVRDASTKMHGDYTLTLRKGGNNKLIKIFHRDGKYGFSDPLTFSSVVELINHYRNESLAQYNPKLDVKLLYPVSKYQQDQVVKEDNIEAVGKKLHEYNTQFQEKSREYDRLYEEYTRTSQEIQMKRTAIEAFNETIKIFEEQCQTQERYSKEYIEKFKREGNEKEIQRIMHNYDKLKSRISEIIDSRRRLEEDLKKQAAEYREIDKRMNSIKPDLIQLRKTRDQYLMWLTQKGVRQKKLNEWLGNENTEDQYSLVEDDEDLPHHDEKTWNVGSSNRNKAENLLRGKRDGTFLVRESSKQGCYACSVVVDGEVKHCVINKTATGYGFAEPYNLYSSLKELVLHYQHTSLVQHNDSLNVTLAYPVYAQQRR
T2 sequence (P42336 whole entry, species assumed): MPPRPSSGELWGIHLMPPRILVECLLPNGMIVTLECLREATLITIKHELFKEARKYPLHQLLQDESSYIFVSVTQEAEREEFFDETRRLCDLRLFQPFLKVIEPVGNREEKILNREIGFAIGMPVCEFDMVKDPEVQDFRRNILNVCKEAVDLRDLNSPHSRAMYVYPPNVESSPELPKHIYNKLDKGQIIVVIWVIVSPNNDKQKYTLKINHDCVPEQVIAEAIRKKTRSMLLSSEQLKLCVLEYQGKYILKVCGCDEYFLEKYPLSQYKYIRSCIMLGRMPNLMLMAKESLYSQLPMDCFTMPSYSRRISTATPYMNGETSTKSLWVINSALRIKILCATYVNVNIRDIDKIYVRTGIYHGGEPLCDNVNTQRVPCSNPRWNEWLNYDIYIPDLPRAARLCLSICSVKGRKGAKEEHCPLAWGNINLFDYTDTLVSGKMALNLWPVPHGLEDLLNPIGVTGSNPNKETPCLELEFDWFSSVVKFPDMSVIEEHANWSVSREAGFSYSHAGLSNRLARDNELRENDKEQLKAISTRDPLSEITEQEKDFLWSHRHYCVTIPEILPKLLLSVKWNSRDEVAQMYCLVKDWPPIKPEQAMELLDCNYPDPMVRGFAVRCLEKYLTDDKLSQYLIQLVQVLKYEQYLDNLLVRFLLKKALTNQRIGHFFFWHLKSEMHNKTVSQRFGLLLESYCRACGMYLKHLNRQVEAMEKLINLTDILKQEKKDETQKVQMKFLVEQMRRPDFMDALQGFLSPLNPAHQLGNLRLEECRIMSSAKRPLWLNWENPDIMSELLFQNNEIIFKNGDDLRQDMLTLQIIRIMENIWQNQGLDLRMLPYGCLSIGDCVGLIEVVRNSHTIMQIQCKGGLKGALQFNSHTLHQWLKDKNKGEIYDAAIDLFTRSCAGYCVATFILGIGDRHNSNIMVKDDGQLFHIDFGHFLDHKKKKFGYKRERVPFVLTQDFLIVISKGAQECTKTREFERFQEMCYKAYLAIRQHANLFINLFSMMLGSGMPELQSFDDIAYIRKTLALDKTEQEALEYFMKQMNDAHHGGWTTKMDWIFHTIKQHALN
T2 sequence (P27986 whole entry partner, species assumed): as the sequence (P27986 whole entry partner) above

Take `CC(=O)Nc1ccc(Sc2nccc(-c3ccc4nc(NC(C)=O)sc4c3)n2)cc1` [Example 29, N-(4-((4-(2-(acetylamino)-1,3-benzothiazol-6-yl)-2-pyrimidinyl)sulfanyl)phenyl)acetamide]: the pIC50 (in general, the IC50 on a negative log10 scale, so that one unit is a factor of ten) is 5.62 on PI3K β and 6.48 at PI3K α.
As for `COCCCNc1nccc(-c2ccc3nc(NC(C)=O)sc3c2)n1` [Example 46, N-(6-(2-((3-methoxypropyl)amino)-4-pyrimidinyl)-1,3-benzothiazol-2-yl)acetamide], the results for the negative logarithm of the IC50 (pIC50) on PI3K β and on PI3K α were 4.69 and 5.92, respectively.
With `CC(=O)Nc1nc2ccc(-c3ccnc(CCCc4ccccc4)n3)cc2s1` [Example 14, N-(6-(2-(3-phenylpropyl)-4-pyrimidinyl)-1,3-benzothiazol-2-yl)acetamide], the pIC50 on PI3K β is 4.97; at PI3K α, 5.56.
As for `Cc1nc2ccc(-c3cc(O)c(C(F)(F)F)nc3F)cc2s1` [Example 341, 6-fluoro-5-(2-methyl-1,3-benzothiazol-6-yl)-2-(trifluoromethyl)-3-pyridinol], the pIC50 was under 4.40 at PI3K β and 4.66 at PI3K α.
On to `CC(=O)Nc1nc2ccc(-c3ccnc(O)n3)cc2s1` [Example 53, N-(6-(2-hydroxy-4-pyrimidinyl)-1,3-benzothiazol-2-yl)acetamide], for which the pIC50 is under 4.40 at PI3K β and 5.10 on PI3K α.
For the compound `Nc1nc2ccc(-c3nnc(NS(=O)(=O)c4ccc(F)cc4)o3)cc2s1` [Example 168, N-(5-(2-aminobenzo[d]thiazol-6-yl)-1,3,4-oxadiazol-2-yl)-4-fluorobenzenesulfonamide], the results for the negative logarithm of the IC50 (pIC50) at PI3K β and at PI3K α were 6.09 and 6.18, respectively.
For `CC(=O)Nc1nc2ccc(-c3ccnc(Sc4ccc(C)c(C)c4)n3)cc2s1` [Example 128, N-(6-(2-((3,4-dimethylphenyl)sulfanyl)-4-pyrimidinyl)-1,3-benzothiazol-2-yl)acetamide], in that order: 6.28 and 7.47.
`CC(=O)Nc1nc2ccc(-c3cncc(OCCN4CCCC4=O)c3)cc2s1` [Example 229, N-(6-(5-(2-(2-oxopyrrolidin-1-yl)ethoxy)pyridin-3-yl)benzo[d]thiazol-2-yl)acetamide]: the negative logarithm of the IC50 (pIC50) on PI3K β was 4.82; on PI3K α it was 5.97.
For the compound `CC(=O)Nc1nc2ccc(-c3ccnc(N4CCCC4c4ccccc4)n3)cc2s1` (racemic) [Example 266, N-(6-(2-(2-phenylpyrrolidin-1-yl)pyrimidin-4-yl)benzo[d]thiazol-2-yl)acetamide], the pIC50 on PI3K β is 5.79; at PI3K α, 5.58.
For `Nc1nc2ccc(-c3ccnc(NCCCc4ccccc4)n3)cc2s1` [Example 45, 6-(2-(3-Phenylpropylamino)pyrimidin-4-yl)benzo[d]thiazol-2-amine], in that order: 6.34 and 5.71.
In the case of `CC(=O)Nc1nc2ccc(-c3csc(S(=O)(=O)c4ccccc4)n3)cc2s1` [Example 64, N-(6-(2-(phenylsulfonyl)thiazol-4-yl)benzo[d]thiazol-2-yl)acetamide], the pIC50 was under 4.40 on PI3K β and 6.07 at PI3K α.
Turning to `CC(=O)Nc1nc2ccc(-c3cnc(C)c(N)c3)cc2s1` [Example 142, N-(6-(5-amino-6-methyl-3-pyridinyl)-1,3-benzothiazol-2-yl)acetamide], the negative-log IC50 (pIC50) at PI3K β is under 4.40; on PI3K α, 6.96.
Regarding `CC(=O)Nc1nc2ccc(-c3ccnc(OCCCN(C)C)n3)cc2s1` [Example 8], the pIC50 is under 4.40 at PI3K β and 4.95 at PI3K α.
`Nc1nc2ccc(-c3cccc(NS(=O)(=O)c4ccccc4)n3)cc2s1` [Example 71, N-(6-(2-Aminobenzo[d]thiazol-6-yl)pyridin-2-yl)benzenesulfonamide]: the pIC50 on PI3K β was 5.84; at PI3K α, 5.42.
With `COc1ccc(OC)c(Sc2nccc(-c3ccc4nc(NC(C)=O)sc4c3)n2)c1` [Example 158, N-(6-(2-((2,5-dimethoxyphenyl)sulfanyl)-4-pyrimidinyl)-1,3-benzothiazol-2-yl)acetamide], the values for the negative logarithm of the IC50 (pIC50) at PI3K β and at PI3K α were 6.37 and 6.08, respectively.
